Test results published in patent publication US20060286047A1, “Methods for determining the sequence of a peptide motif having affinity for a substrate” (priority 2005, published 2006).

assay: ELISA assay of peptide motif binding to bleached hair; design: species or system human; Binding Activity % Relative to Control: concentration or dose not given beside the values; settings: bleached hair ELISA; summary of Table 7
Experimental: The hair samples used were 6-inch (15.2 cm) medium brown human hairs obtained from International Hair Importers and Products (Bellerose, N.Y.). The hairs were placed in 90% isopropanol for 30 min at room temperature and then washed 5 times for 10 min each with deionized water. The hairs were air-dried overnight at room temperature. To prepare the bleached hair samples, the air-dried medium brown human hairs were placed in 6% H2O2, which was adjusted to pH 10.2 with ammonium hydroxide, for 10 min at room temperature and then washed 5 times for 10 min each with deionized water. The hairs were air-dried overnight at room temperature.
Ten hair-binding peptide motifs from Table 6 were selected for testing of their hair-binding activity. The ten peptides were synthesized by SynPep (Dublin, Calif.). […] The control peptide had the sequence TPPELLHGDPRS, given as SEQ ID NO:124. The peptides were biotinylated by adding a biotinylated lysine residue at the C-terminus of the amino acid binding sequences for detection purposes and an amidated cysteine was added to the C-terminus of the sequence.
Bleached hair samples were prepared and placed into wells of a custom 24-well biopanning apparatus, as described in Example 1. The hair was blocked with blocking buffer (SuperBlock™ from Pierce Biotechnology, Inc., Rockford, Ill.) at room temperature for 1 h, followed by six washes with TBST-0.5%, 2 min each, at room temperature. Various concentrations of biotinylated, binding peptide were added to each well, incubated for 15 min at 37° C., and washed six times with TBST-0.5%, 2 min each, at room temperature. Then, streptavidin-horseradish peroxidase (HRP) conjugate (Pierce Biotechnology, Inc.) was added to each well (1.0 μg per well), and incubated for 1 h at room temperature. After the incubation, the conjugate solution was removed and the wells were washed six times with TBST-0.5%, 2 min each, at room temperature. TMB substrate (200 μL) (Pierce Biotechnology, Inc.) was added to each well and the color was allowed to develop for between 5 to 30 min, typically for 10 min, at room temperature. Then, stop solution (200 μL of 2 M H2SO4) was added to each well and the solutions were transferred to a 96-well plate and the A450 was measured using a microplate spectrophotometer (Molecular Devices, Sunnyvale, Calif.). The resulting absorbance values, were used to calculate the binding activity of each hair-binding peptide motif relative to the positive control sequence.

Substance	binding activity to hair compared to the positive control peptide (in words)
95 (YSPIK; Hair-binding peptide motif) [compound 95]	low binding activity
98 (RPPLD; Hair-binding peptide motif) [compound 98]	comparable to or greater than that of the positive control peptide
119 (SNTTPSPSP; Hair-binding peptide motif) [compound 119]	comparable to or greater than that of the positive control peptide
121 (SPIKRPPLS; Hair-binding peptide motif) [compound 121]	low binding activity
123 (RLLRLLRLLRLL; Hair-binding peptide motif) [compound 123]	comparable to or greater than that of the positive control peptide

same assay, conditions: bleached human hair; biotinylated peptide, streptavidin-HRP/TMB, A450; relative to positive control SEQ ID NO:124

Substance	Binding Activity % Relative to Control [%]
90 (PLSTY; Hair-binding peptide motif) [compound 90]	53.0
92 (TLGQA; Hair-binding peptide motif) [compound 92]	86.6
95 (YSPIK; Hair-binding peptide motif) [compound 95]	1.9
97 (FPPVP; Hair-binding peptide motif) [compound 97]	81.5
98 (RPPLD; Hair-binding peptide motif) [compound 98]	90.3

Other lines, results leading:

Binding Activity % Relative to Control [%]	Substance
84.6	99 (QPLSV; Hair-binding peptide motif) [compound 99]
94.5	119 (SNTTPSPSP; Hair-binding peptide motif) [compound 119]
88.3	120 (THPLSNTT; Hair-binding peptide motif) [compound 120]
4.4	121 (SPIKRPPLS; Hair-binding peptide motif) [compound 121]
127.1	123 (RLLRLLRLLRLL; Hair-binding peptide motif) [compound 123]
100.0	124 (TPPELLHGDPRS; Control hair-binding peptide) [compound 124]

assay: not given; settings: control peptide as identified by Huang et al.; cited from earlier work

Substance	affinity for hair (in words)
124 (TPPELLHGDPRS; Control hair-binding peptide) [compound 124]	high affinity for hair
